Results reported in patent US7951962B2, “Organic semiconductor compound, organic semiconductor thin film, organic semiconductor coating liquid, organic thin film transistor, methods for producing bis(benzo[4,5] thieno)[2,3-B:3′2′-E][1,4]dithin and bis(benzo [4,5]thieno)[2,3-B:2′3′-E][1,4]dithiin” (Seiko Epson Corporation, priority 2006, dated 2011).

Tests used:
Solvent solubility = type: physicochemical
From the text: The solvent for dissolving the organic semiconductor compound material according to the embodiment may be a hydrocarbon, an alcohol, an ether, an ester, a halogen, a ketone, […], the BTX, a non-proton polar solvent or a mixture solvent thereof. The hydrocarbon may be hexane, heptane, octane or cyclohexane, for example. The alcohol may be methanol, ethanol, (iso-)propanol or butanol. The ether may be diethyl ether, tetrahydrofuran or dioxane and the ester may be ethyl acetate or butyl acetate. The halogen may be dichloromethane or chloroform and the ketone may be acetone or methyl ethyl ketone. The nitrile may be acetonitrile or methyl nitrile. The BTX is a mixture of benzene, toluene and xylene. The non-proton polar solvent may be dimethylsulfoxide (DMSO), dimethylformamide (DMF) or hexamethylphosphoramide (HMPA).
Based on logarithmic plotting in the graph, an ON/OFF ratio of the device was approximately […].

| solubility in solvent (Solvent solubility; the above-described solvent (hydrocarbon, alcohol, ether, ester, halogen, ketone, nitrile, BTX, non-proton polar solvent)) | melting point [°C] | SMILES | solubility compared with known compounds (Solvent solubility; versus well-known low-molecular organic semiconductor compounds) |
| --- | --- | --- | --- |
| soluble in the above-described solvent | – | c1ccc2c3c(sc2c1)Sc1sc2ccccc2c1S3 [bis(benzo[4,5]thieno)[2,3-b: 3′2′-e][1,4]dithiin] | higher solubility than well-known low-molecular organic semiconductor compounds |
| – | 207 to 208.3 | c1ccc2c3c(sc2c1)Sc1c(sc2ccccc12)S3 [bis(benzo[4,5]thieno)[2,3-b: 2′3′-e][1,4]dithiin] | – |
